The structures appear in SMILES notation.

One test deals with cSRC (h) (Homo sapiens, UniProt P12931). The test is described as follows: Kinase profiling C3.9 cSRC human. It counts as biochemical. As to conditions: test concentration of 10^−6 M. The procedure: (§1) The in vitro inhibition of a panel of kinases was assessed using either the glass-fiber filter technology as described by Davies, S. P. et al., Biochem J. (2000), 351; p. 95-105. In the glass-fiber filter technology the activity of the kinase of interest is measured using an appropriate substrate that is incubated with the aforementioned kinase protein in the presence of (^33P) radiolabeled ATP. (^33P) Phosporylation of the substrate is subsequently measured as radioactivity bound on a glassfiber-filter.
(§2) All kinases are pre-diluted to a 10× working concentration prior to addition into the assay. The composition of the dilution buffer for each kinase is detailed below.
(§3) All substrates are dissolved and diluted to working stocks in de-ionised water, apart from histone H1 that is stored in 10× working stock in 20 mM MOPS pH 7.4.
(§4) In a final reaction volume of 25 μl, cSRC (h) (5-10 mU) is incubated with 8 mM MOPS pH 7.0, 0.2 mM EDTA, 250 μM KVEKIGEGTYGVVYK (Cdc2 peptide), 10 mM MgAcetate and [γ-^33P-ATP] (specific activity approx. 500 cpm/pmol, concentration as required). The reaction is initiated by the addition of the MgATP mix. After incubation for 40 minutes at room temperature, the reaction is stopped by the addition of 5 μl of a 3% phosphoric acid solution.
10 μl of the reaction is then spotted onto a P30 filtermat and washed three times for 5 minutes in 75 mM phosphoric acid and once in methanol prior to drying and scintillation counting.

For another test, the system named is Chang cells. The test can be described thus: GSK-3 cellular assay (C2): 14C-D-glucose incorporation into glycogen. It counts as cell-based. As to conditions: increase in D-glucose incorporation into glycogen, test concentration of 10^−6 M. The procedure: Test compounds were tested for their ability to increase the incorporation of ^14C-D-glucose into glycogen in living cells. To do this, Chang cells (360,000 cells/well) were cultured in 0.5 ml of MEM Rega 3 medium supplemented with 10% fetal calf serum, 1% L-glutamine and 2% sodium carbonate. After 3 days, cells were washed with 0.5 ml of phosphate-buffered saline and overlayed with 1 ml of serum- and glucose-free DMEM medium. Then, 2 μl of compound in DMSO and 50 μl substrate (3 mM glucose and 0.5 μCi ^14C-D-glucose were added and the cultures were incubated for 90 min. Cells were then extracted with 0.5 ml of 20% KOH for 60 min at 37° C. and the cell lysates were transferred to 10 ml tubes containing 300 μl of 1 mg/ml glycogen as […]. Following the addition of 2 ml ethanol, total glycogen was precipitated overnight at −20° C. and the precipitates were recovered by centrifugation. Precipitates were then resuspended in 1 ml of water and transferred to scintillation counter vials. and the amount of ^14C-D-glucose incorporation into glycogen was measured by scintillation counting. Scores for the compounds according to the invention, were obtained at a test concentration of 10^−6 M. Score 1=10-30% increase, Score 2=30-60% increase, Score 3=60-80% increase and Score 4=>80% increase in D-glucose incorporation.

Another test concerns the target CDK2/cyclinA (h) (Homo sapiens, UniProt P24941). The test can be described thus: Kinase profiling C3.3 CDK2/cyclinA human. It counts as biochemical. Particulars: test concentration of 10^−6 M. The gist of the method: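 Human CDK2/cyclinA (5-10 mU) phosphorylates 0.1 mg/ml histone H1 in 8 mM MOPS pH 7.0, EDTA, 10 mM Mg acetate with [γ-33P]ATP, 40 min at room temperature. After phosphoric acid stop, filter-bound 33P counted by scintillation.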

A further test has as its target T1, Aurora-A (h) (Homo sapiens, UniProt O14965).
T1 sequence (O14965 1-403): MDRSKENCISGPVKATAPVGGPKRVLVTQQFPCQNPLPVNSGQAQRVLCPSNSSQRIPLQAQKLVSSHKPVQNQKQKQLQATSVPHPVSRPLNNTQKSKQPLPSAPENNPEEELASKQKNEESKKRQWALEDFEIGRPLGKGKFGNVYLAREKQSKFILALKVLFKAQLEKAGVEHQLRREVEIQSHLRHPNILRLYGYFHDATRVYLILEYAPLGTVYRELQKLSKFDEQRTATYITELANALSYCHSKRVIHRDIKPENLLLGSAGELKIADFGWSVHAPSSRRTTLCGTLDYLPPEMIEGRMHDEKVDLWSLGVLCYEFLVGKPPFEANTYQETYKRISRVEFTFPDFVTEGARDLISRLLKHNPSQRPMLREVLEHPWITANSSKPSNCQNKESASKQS
The test can be described thus: Kinase profiling C3.1 Aurora-A human. It counts as biochemical. Particulars: test concentration of 10^−6 M. The protocol: as §1, §2, §3
as §4, with “Aurora-A” for “cSRC”, “200” for “250”, “LRRASLG (Kemptide),” for “KVEKIGEGTYGVVYK (Cdc2 peptide),”, “solution. 10 μl of the reaction is then spotted onto a P30 filtermat and washed three times for 5 minutes in 50 mM phosphoric acid and once in methanol prior to drying and scintillation counting.” for “solution.”

In the next test the target is GSK-3α (Homo sapiens, UniProt P49840). The test can be described thus: GSK-3 kinase assay (C1), GSK-3α. Type of test: biochemical. As to conditions: 1 μM ATP, read-out: C1 Score α. The gist of the method:
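Radiometric SPA at room temperature in 25 mM Tris pH 7.4 with 10 mM MgCl2, 1 mM DTT, 5.7 ng/μl GSK-3β or 0.25 ng/μl GSK-3α, 5 μM biotinylated CREB peptide and 1 μM ATP plus ^33P-ATP. Stopped after 1 h; IC50 from dose-response versus no-compound control, reported as pIC50 score bands.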

The target of the next test is Yes (h) (Homo sapiens, UniProt P07947). The test can be described thus: Kinase profiling C3.10 Yes human. As to conditions: test concentration of 10^−6 M. It counts as biochemical. The procedure:
as §1, §2, §3
as §4, with “Yes” for “cSRC”, “0.1 mg/ml poly(Glu, Tyr) 4:1,” for “250 μM KVEKIGEGTYGVVYK (Cdc2 peptide),”, “solution. 10 μl of the reaction is then spotted onto a Filtermat A and washed three times for 5 minutes in 75 mM phosphoric acid and once in methanol prior to drying and scintillation counting.” for “solution.”

cSRC (h), sequence (P12931 whole entry): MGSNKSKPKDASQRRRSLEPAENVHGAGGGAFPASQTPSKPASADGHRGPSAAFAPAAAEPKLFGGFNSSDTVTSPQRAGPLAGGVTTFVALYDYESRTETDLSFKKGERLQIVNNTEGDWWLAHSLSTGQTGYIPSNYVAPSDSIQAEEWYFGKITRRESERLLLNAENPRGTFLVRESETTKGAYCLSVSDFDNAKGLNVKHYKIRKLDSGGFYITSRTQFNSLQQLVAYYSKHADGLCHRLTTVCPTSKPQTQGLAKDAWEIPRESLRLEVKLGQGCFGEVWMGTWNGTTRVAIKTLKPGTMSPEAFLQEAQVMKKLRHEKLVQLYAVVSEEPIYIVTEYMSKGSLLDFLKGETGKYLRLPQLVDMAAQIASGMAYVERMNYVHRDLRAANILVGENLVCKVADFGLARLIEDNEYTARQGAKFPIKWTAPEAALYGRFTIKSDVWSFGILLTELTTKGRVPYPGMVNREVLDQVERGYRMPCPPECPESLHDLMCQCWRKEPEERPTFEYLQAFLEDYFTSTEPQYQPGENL
Yes (h), sequence (P07947 whole entry): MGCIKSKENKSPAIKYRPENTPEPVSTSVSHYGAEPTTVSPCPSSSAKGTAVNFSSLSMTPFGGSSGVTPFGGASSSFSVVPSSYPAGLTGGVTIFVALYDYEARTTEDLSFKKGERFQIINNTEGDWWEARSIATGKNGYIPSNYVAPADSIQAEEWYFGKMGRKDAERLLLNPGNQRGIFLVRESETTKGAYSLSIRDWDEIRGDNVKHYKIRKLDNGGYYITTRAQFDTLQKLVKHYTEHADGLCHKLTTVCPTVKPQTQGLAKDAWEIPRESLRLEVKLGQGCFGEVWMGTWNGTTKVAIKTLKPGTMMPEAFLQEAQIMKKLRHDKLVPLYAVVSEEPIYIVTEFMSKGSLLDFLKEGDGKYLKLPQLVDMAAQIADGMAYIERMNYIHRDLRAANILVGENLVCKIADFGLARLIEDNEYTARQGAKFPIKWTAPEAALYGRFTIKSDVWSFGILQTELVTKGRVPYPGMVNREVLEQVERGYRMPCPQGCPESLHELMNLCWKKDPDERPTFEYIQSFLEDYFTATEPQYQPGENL
GSK-3α, sequence (P49840 whole entry, species assumed): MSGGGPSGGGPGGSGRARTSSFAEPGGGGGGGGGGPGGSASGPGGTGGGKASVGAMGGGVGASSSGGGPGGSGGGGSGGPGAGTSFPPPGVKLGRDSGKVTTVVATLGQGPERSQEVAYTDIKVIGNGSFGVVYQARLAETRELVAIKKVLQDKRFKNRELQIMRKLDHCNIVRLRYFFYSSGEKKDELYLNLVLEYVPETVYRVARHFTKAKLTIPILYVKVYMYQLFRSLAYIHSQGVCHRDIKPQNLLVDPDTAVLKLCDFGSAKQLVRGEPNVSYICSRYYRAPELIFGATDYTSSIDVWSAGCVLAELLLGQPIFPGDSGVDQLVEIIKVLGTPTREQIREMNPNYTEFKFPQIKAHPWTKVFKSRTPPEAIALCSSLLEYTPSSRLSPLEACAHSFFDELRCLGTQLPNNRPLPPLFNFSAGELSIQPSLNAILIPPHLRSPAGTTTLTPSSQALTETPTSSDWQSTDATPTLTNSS

In the case of `O=C1CNCc2cccc(c2)Nc2ncnc(n2)-c2cncc(c2)CCCN1` [Compound 83], the C3.9 score at cSRC (h) is 2 (Score 2 = 30-60% inhibition). In the test with Chang cells, the “C2 Score” value is 4 (Score 4=>80% increase in D-glucose incorporation). Also, at CDK2/cyclinA (h), the C3.3 score is listed as 2 (Score 2 = 30-60% inhibition). Further, the C3.1 score at Aurora-A (h) was 2 (Score 2 = 30-60% inhibition). The IC50 at GSK-3α was in the range of 10 to 100 nM. At Yes (h), the C3.10 score is recorded as 2 (Score 2 = 30-60% inhibition).

(Values after US8778919B2, “Cyclic anilino—pyridinotriazines” (Janssen Pharmaceutica NV, priority 2005, dated 2014).)
